Experimental findings from PMC12029898, “Cellular Metabolomics Reveals Differences in the Scope of Liver Protection Between Ammonium-Based Glycyrrhizinate and Magnesium Isoglycyrrhizinate” (Metabolites, 2025) are described below.

Data set [1] deals with LO2 cells. Description: Cell viability of LO2 cells exposed to APAP (MTT), liver injury model. It is filed as cell-based, human.
Protocol: Cell culture and model construction: The experimental LO2 cells were provided by Shanghai Fuheng Biotechnology Co., Ltd. (Shanghai, China). Cells induced by APAP formed a cell model of liver injury. The cells were cultured in RPMI 1640 medium containing 100 units of penicillin, 100 μg/mL streptomycin, and 10% FBS at 37 °C and 5% CO2 atmosphere. The cells were changed daily and passaged when the contact reached 80%. Cells in the logarithmic growth phase were seeded onto a 96-well plate at a density of 4000 cells per well and subsequently incubated at 37 °C in an atmosphere containing 5% CO2. After 24 h of pre-incubation, cells were exposed to APAP at concentrations of 2, 4, 8, and 16 mM, followed by continued culture for the designated time periods. Subsequently, 20 μL of MTT solution (5 mg/mL, dissolved in PBS) was added to each well and incubated for an additional 4 h at 37 °C. To dissolve the formed formazan crystals, 200 μL of DMSO was added. The absorbance values were then measured at 490 nm using a microplate reader ([sequence] 200 PRO, Tecan, Männedorf, Switzerland). The cell survival rates at different APAP concentrations were calculated, and a cell survival rate below 60% was considered indicative of successful model construction. The specific formula employed for calculating the cell survival rate is provided below. […] Cell viability=AAPAP−ABlank/AControl−ABlank
A short description of data set [2]: Pharmacokinetics after oral gavage in rats (plasma, HPLC). Particulars: male, Sprague Dawley, rat, po, 20 mg/kg. It is filed as in vivo, Sprague Dawley rats. An excerpt: Nine male Sprague Dawley rats, each weighing approximately 250 g ± 25 g, were meticulously selected as the experimental subjects (sourced from Beijing SPF Biotechnology Co., Ltd., (Beijing, China) SPF grade, licensed under SCXK (Jing) 2019-0010). The experimental protocol was approved by the Institutional Animal Care and Use Committee of Hebei Medical University and conformed to the Guide for Care and Use of Laboratory Animals (approval NO. 2023040). Prior to and throughout the experimental period, the rats were provided with unrestricted access to standard rodent chow and water. The housing facilities for these animals adhered strictly to the standards outlined by the International Association for the Evaluation and Certification of Laboratory Animal Care, ensuring optimal conditions for the animals’ wellbeing. The experimental feeding environment was maintained at a temperature of 22–24 °C, with a relative humidity of 50 ± 5%, and a 12-h light/dark cycle to mimic natural diurnal rhythms. The rats were randomly allocated into three distinct groups, with an equal distribution of three rats per group. MONO, DIAM, and MAGN were administered orally at a dose of 20 mg/kg. The amount administered was calculated as the contents of glycyrrhizinate or magnesium isoglycyrrhizinate. Each compound was dissolved in 0.5% carboxymethylcellulose sodium (CMC-Na) solution and delivered immediately to rats via gastric gavage. Blood samples of 0.2 mL were obtained at various time points post-administration (0.5, 1, 2, 4, 8, 12, 24, and 48 h) and centrifuged at 1500× g for 10 min at 4 °C, allowing for the separation of plasma, which was collected and stored at −20 °C for subsequent analysis.
Fifty microliters (50 μL) of plasma was obtained and spiked with 10 μL of dipyridamole solution as an internal standard. Subsequently, 100 μL of acetonitrile was added to precipitate the proteins, followed by vortex mixing. The mixture was centrifuged at 6000× g for 10 min at 4 °C. The resulting precipitate was discarded, and the supernatant was evaporated to dryness under a nitrogen stream at 60 °C. The residual precipitate was redissolved in 200 μL of mobile phase, vortexed for 5 min, and sonicated for 30 s. Following this, the solution was centrifuged again at 6000× g for 10 min at 4 °C. Then, 10 μL of the supernatant was injected and the chromatogram was recorded for analysis.
HPLC was employed using the Agilent 1200 series system (Agilent Technologies, Wilmington, DE, USA) with Agilent Chemstation LC B.04.03 Software. The separation was on a Venusil MP C18(2) chromatographic column (150 × 4.6 mm, 5 μm, Agela Technologies, Tianjin, China) based on the United States Pharmacopeia with adjustments performed. Isocratic elution with a mixture of 40 volumes of acetonitrile and 60 volumes of water (containing 0.5% acetic acid) was used. The flow rate and temperature were 1.0 mL/min and 40 °C, respectively. A volume of 10 μL of the sample was injected under 254 nm for analyses and with three repetitions for each test (n = 3). All the pharmacokinetic data were calculated by Drug and Statistics (DAS) 2.0 software (Mathematical Pharmacology Professional Committee of China, Shanghai, China) and presented as mean ± SD. The main parameters such as the area under the curve (AUC), the maximum plasma concentration (Cmax), the time to Cmax (Tmax), and elimination half-life (t1/2) were tabulated.

Data set [3] relates to LO2 cells. In words: Hepatocyte protection rate in APAP-induced LO2 cells (MTT). It is filed as cell-based, human. Particulars: 16 mM APAP, 200, 400 and 600 μM. Here is the method:
Assessment of hepatocyte-protective effects: Cells in the logarithmic growth phase were seeded onto a 96-well plate at a density of 4000 cells per well, followed by incubation at 37 °C in an atmosphere containing 5% CO2. After 24 h of incubation, cells were treated with 16 mM APAP, followed by the addition of MONO, DIAM, and MAGN at three escalating concentrations (200, 400, and 600 μM for each compound). The cell survival rate was quantitatively evaluated using MTT method. The protective efficacy of the compounds was then calculated employing the formula outlined below.(1) Hepatocytes protection rate=AGlycyrrhizinate−AAPAP/Anormal−AAPAP×1

`CC(=O)Nc1ccc(O)cc1` [APAP, acetaminophen]: the “cytotoxicity towards LO2 cells” value in the data set with LO2 cells [1] (APAP 2-16 mM) is reported as “concentration-dependent cytotoxicity”. Further, the cell survival rate entry in the data set on LO2 cells [1] (APAP concentrations exceeding 16 mM, 24 h of APAP exposure) is listed as “below 60%”.
For `CC1(C)[C@@H](O[C@H]2O[C@H](C(=O)O)[C@@H](O)[C@H](O)[C@H]2O[C@@H]2O[C@H](C(=O)O)[C@@H](O)[C@H](O)[C@H]2O)CC[C@]2(C)[C@H]3C(=O)C=C4[C@@H]5C[C@@](C)(C(=O)O)CC[C@]5(C)CC[C@@]4(C)[C@]3(C)CC[C@@H]12` [MONO, monoammonium glycyrrhizinate], in data set [2] (n = 3), the half-life was 10.8 ± 0.66 h. For the same compound, the AUC(0-t) in data set [2] (n = 3, read-out: AUC0-t) came to 320 ± 78.6 µg·h/mL. The Cmax in data set [2] (n = 3, read-out: Cmax) is 15000 ± 3640 ng/mL. Moreover, the Tmax in data set [2] (n = 3, read-out: Tmax) amounted to 8 h. Besides, in the data set on LO2 cells [3], the “hepatocyte protection (therapeutic effect)” value was “concentration-dependent therapeutic effects”.
